For data set [1] the following is noted: 15.5° C.; cited from earlier work.
Another data set deals with yeast cells. As to the kind of experiment: EMS mutagenesis, kill rate. The format is cell-based. Conditions: 3 μL EMS in 200 μL cell suspension (OD600 around 10), approximately one hour. The method, then: For example, yeast cells from a fresh YP (yeast extract/peptone)+20 g/L glucose plate or liquid culture (OD600 1-4) are resuspended in sterile water to an OD600 of around 10. 200 μL aliquots of this cell suspension are pipetted into individual tubes and exposed to 3 μL […] (EMS) for approximately one hour, which kills around 65% of the cells. Higher EMS concentrations can also be used to increase the kill rate. After exposure, cells are neutralized with 5% sodium thiosulfate, washed in PBS buffer, recovered in rich media for approximately four hours, and cultured on selective media. Mock samples (no EMS) are also run to ensure that the conditions are selective. Alternatively, cell can be mutagenized using UV irradiation.

The subject of data set [2] is Issatchenkia orientalis ATCC 60585. Briefly: Growth rate in YPD shake flasks (first secondary screen). The data set is classed as cell-based. On the procedure: (§1) For the first secondary screen, growth rates were measured in YPD media containing 0 g/L malate at pH 3.0 or 200 g/L malate at pH 2.85. Shake flasks were inoculated with biomass harvested from seed flasks grown overnight to an OD600 of 6 to 10. 250 mL baffled growth rate flasks (50 mL working volume) were inoculated to an OD600 of 0.1 and grown at 250 rpm and 30° C. Samples were taken throughout the time course of the assay and analyzed for biomass growth via OD600. The resulting OD600 data was plotted and growth rates were established.

In data set [3] the test system is Candida guilliermondii ATCC 20118. The description is as above. The data set is classed as cell-based. On the procedure: as §1
Data set [4] concerns Candida sorbosivorans CD1978. Described as above. The format is cell-based. On the procedure:
as §1

Data set [5] deals with Candida vanderwaltii MUCL 30000. The description is as above. The format is cell-based. The method, then: as §1
In data set [6] the test system is Saccharomyces bulderi ATCC MYA-404. As to the kind of experiment: Glucose consumption rate in YPD shake flasks (second secondary screen). The data set is classed as cell-based. On the procedure:
(§2) For the second secondary screen, glucose consumption was measured in YPD media containing 0 g/L malate at pH 3.0 or 200 g/L malate at pH 2.85. Shake flasks were inoculated with biomass harvested from seed flasks grown overnight to an OD600 of 6 to 10. 250 mL baffled glycolytic assay flasks (50 mL working volume) were inoculated to an OD600 of 0.1 and grown at 250 RPM and 30° C. Samples were taken throughout the time course of the assay and analyzed for glucose consumption using a 2700 Biochemistry Analyzer (Yellow Springs Instruments, YSI). The resulting data was plotted and glucose consumption rates were established.
(§3) The same procedures were utilized to screen, rate, and score the original 91 wild-type yeast strains from the primary screen with media containing 0, 30, 45, and 60 g/L lactic acid at pH 3.0 (˜80% free acid). Due to difficulties in properly scoring some very weak growth that occasionally occurred at 60 g/L, 20 strains were re-tested in the primary screen. Of these 20 strains, eight were eliminated due to very slow growth relative to the rest of the test group. The remaining 12 strains were advanced into secondary screening. The secondary screen for lactic acid was the same as that described above for malate, except for changes in concentrations and pH values. Growth rates were measured at 0 g/L lactic acid, pH 3.0 and 50 g/L lactic acid, pH 2.85, and glucose consumption rates were measured in the presence of 50 g/L lactic acid, pH 2.85. Normalized values and weighted and summed scores were calculated for each strain as described above for malate.

The test system of data set [7] is Candida sorbosivorans ATCC 38619. The description is as above. The format is cell-based. On the procedure: as §2, §3
In data set [8] the test system is Issatchenkia orientalis ATCC 24210. The description is as above. The format is cell-based. On the procedure:
as §2, §3

Data set [9] concerns Issatchenkia orientalis CD1822. Described as above. The format is cell-based. The method, then: as §2, §3
Data set [10] relates to Candida lambica ATCC 38617. The data set is described as above. The format is cell-based. The method, then:
as §2, §3

Data set [11] deals with Issatchenkia orientalis ATCC PTA-6658. The description is as above. The format is cell-based. The method, then:
as §2, §3

In data set [12] the test system is Saccharomyces bulderi ATCC MYA-404. As to the kind of experiment: Growth rate in YPD shake flasks (first secondary screen). The data set is classed as cell-based. The method, then: as §1, §3
The test system of data set [13] is Candida sorbosivorans ATCC 38619. The data set is described as above. The format is cell-based. On the procedure:
as §1, §3

The subject of data set [14] is Issatchenkia orientalis ATCC 24210. The data set is described as above. The format is cell-based. The method, then:
as §1, §3

Data set [15] has as its system Issatchenkia orientalis CD1822. Described as above. The format is cell-based. The method, then: as §1, §3
The subject of data set [16] is Candida lambica ATCC 38617. The description is as above. The data set is classed as cell-based. The method, then: as §1, §3
The subject of data set [17] is Issatchenkia orientalis ATCC PTA-6658. Described as above. The data set is classed as cell-based. The method, then:
as §1, §3

The next data set relates to wild-type yeast strains. Briefly: Additional primary screen: growth on microtiter plates with malate. The format is cell-based. Conditions: ten strains of 24 re-tested; 200 g/L malate, pH 2.85, microtiter plates, overnight. On the procedure: For the primary screening procedure, 91 wild-type yeast strains were screened for growth on microtiter plates at pH 2.85 with 0 g/L, 150 g/L, 300 g/L, or 350 g/L pH 2.85 malate using the same protocol used for range finding. A fresh YPD plate was used for each strain, and a slurry with an OD600 of around 4 was made in YPD media, pH 3.0. The slurry was used to inoculate each well to an OD600 of 0.05. Plates were covered with a gas permeable membrane, and incubated in a 30° C./300 rpm shaker overnight. Optical densities of each well were measured at 600 nm in a GENios model plate reader, and plates were observed visually for growth. To account for plate-to-plate variability, I. orientalis PTA-6658 was included on all plates as a control. […] As such, an additional screen was added wherein the 24 strains that grew as well or better than the I. orientalis control strain were re-tested. […] These ten strains were advanced to the secondary screens. […] However, it is possible that one or more such strains could nonetheless meet the minimum requirements for a commercially viable fermentation process.

Data set [18] has as its system seven wild-type yeast strains. Briefly: Range finding: overnight growth in microtiter wells with malate. The format is cell-based. Conditions: YPD, 30° C. The method, then:
The range of malate concentrations to utilize in primary screening procedures was determined by evaluating the ability of seven wild-type yeast strains (Candida sonorensis, Candida zemplinina, I. orientalis strain PTA-6658, I. orientalis strain CD1822, Kluyveromyces lactis, K. marxianus, S. cerevisiae strain CENPK 113-7D) to grow on media containing varying levels of malate. Cells were streaked onto YPD plates and grown overnight. A cell slurry with an OD600 of around 4 was made in YPD media, pH 3.0, and this slurry was used to inoculate microtiter wells containing various concentrations of malate to an OD600 of 0.05. Plates were covered with a gas permeable membrane and incubated in a 30° C./300 rpm shaker overnight. The optical densities of each well were measured at a wavelength of 600 nm in a GENios model plate reader (Tecan), and plates were observed visually for growth. The highest malate concentration that one or more of the strains grew in (350 g/L) was chosen as the upper range for primary screening procedure.

Data set [19] concerns Issatchenkia orientalis ATCC 60585. Briefly: Glucose consumption rate in YPD shake flasks (second secondary screen). The format is cell-based. The method, then:
as §2

The test system of data set [20] is Candida guilliermondii ATCC 20118. The data set is described as above. The format is cell-based. The method, then:
as §2

The test system of data set [21] is Candida sorbosivorans CD1978. Described as above. The data set is classed as cell-based. The method, then:
as §2

For data set [22], the system named is Candida vanderwaltii MUCL 30000. Described as above. The data set is classed as cell-based. On the procedure: as §2
The mark [23] stands for this setting: malate, slope of growth rates against acid concentration, scale 0 to 1.
Setting [24] is: Candida sorbosivorans ATCC 24120, scale 0 to 1.
The mark [25] stands for this setting: Candida sorbosivorans ATCC 38619, YPD, 30° C.

Molecules are shown by their SMILES.

Regarding `O=C(O)/C=C/C(=O)O` [Fumarate, trans-butanedioic acid], the water solubility in data set [1] is 4.28 g/kg H2O.
With `CCOS(C)(=O)=O` [ethane methyl sulfonate], the cells killed result in the data set on yeast cells is reported as “around 65%”.
For `O=C(O)CC(O)C(=O)O` (stereo not drawn) [malate, hydroxybutanedioc acid], the “Growth rate 200 g/L malate (pH 2.85)” value is recorded as 0.36 h^−1 in data set [2] (YPD, 30° C.); 0.42 h^−1 in [3] (YPD, 30° C.); 0.34 h^−1 in data set [4] (YPD, 30° C.); 0.39 h^−1 in [5] (YPD, 30° C.); 0.39 h^−1 in data set [12] (YPD, 30° C.); 0.37 h^−1 in [13] (setting [25]). The “Growth rate 200 g/L malate (pH 2.85)” value in [14] (YPD, 30° C.) turned out to be 0.39 h^−1; in [15] (YPD, 30° C.), 0.42 h^−1; in data set [16] (YPD, 30° C.) it was 0.33 h^−1; in [17] (YPD, 30° C.) it was 0.44 h^−1. Moreover, the “Normalized grade: Growth rate slope” value in [2] (setting [23]) was determined as 0.54; in data set [3] (setting [23]), 1.00; in data set [4] (setting [23]), 0.00; in data set [5] (setting [23]) it was 0.92; in [12] (setting [23]) it was 1.00; in data set [13] (Candida sorbosivorans ATCC 24120, malate, slope of growth rates against acid concentration, scale 0 to 1), 0.92. Also, the “Normalized grade: Growth rate slope” value in data set [14] (setting [23]) was 0.56; in [15] (setting [23]), 0.67; in data set [16] (setting [23]), 0.41; in data set [17] (setting [23]) it was 0.67. In addition, the “Normalized grade: Growth rate 200 g/L malate (pH 2.85)” value in [2] (scale 0 to 1) came out at 0.27; in data set [3] (scale 0 to 1), 0.82; in data set [4] (scale 0 to 1) it was 0.09; in data set [5] (scale 0 to 1), 0.55; in data set [12] (scale 0 to 1) it was 0.55; in data set [13] (setting [24]), 0.36. For the same compound, the “Normalized grade: Growth rate 200 g/L malate (pH 2.85)” value in data set [14] (scale 0 to 1) amounted to 0.55; in [15] (scale 0 to 1), 0.82; in [16] (scale 0 to 1) it was 0.00; in data set [17] (scale 0 to 1), 1.00. Besides, the “Glucose consumption rate 200 g/L malate (pH 2.85)” value in data set [6] (YPD, 30° C.) is 3.15 g L^−1 h^−1; in data set [7] (setting [25]), 1.4 g L^−1 h^−1; in data set [8] (YPD, 30° C.), 3.1 g L^−1 h^−1; in data set [9] (YPD, 30° C.), 3.3 g L^−1 h^−1; in [10] (YPD, 30° C.) it was 3.2 g L^−1 h^−1; in [11] (YPD, 30° C.), 3.3 g L^−1 h^−1. Besides, the “Glucose consumption rate 200 g/L malate (pH 2.85)” value in data set [19] (YPD, 30° C.) was 2.7 g L^−1 h^−1; in data set [20] (Candida guilliermondii ATCC 20118, YPD, 30° C.), 1.9 g L^−1 h^−1; in data set [21] (YPD, 30° C.) it was 1.85 g L^−1 h^−1; in data set [22] (YPD, 30° C.) it was 1.3 g L^−1 h^−1. Besides, the “Normalized grade: Glucose consumption rate 200 g/L malate (pH 2.85)” value came out at 0.93 in [6] (scale 0 to 1); 0.05 in data set [7] (setting [24]); 0.90 in data set [8] (scale 0 to 1); 1.00 in [9] (scale 0 to 1); 0.95 in [10] (scale 0 to 1); 1.00 in [11] (scale 0 to 1). The “Normalized grade: Glucose consumption rate 200 g/L malate (pH 2.85)” value in [19] (scale 0 to 1) is 0.70; in [20] (Candida guilliermondii, scale 0 to 1) it was 0.30; in data set [21] (scale 0 to 1), 0.28; in data set [22] (scale 0 to 1), 0.00. Besides, the “optical density relative to the same strain in 0 g/L malic acid” value in the data set with wild-type yeast strains was “greater than or equal to 50%”. Besides, the “highest malate concentration that one or more of the strains grew in” value in data set [18] is 350 g/L.
